Assay results: the NIST ThermoML archive (doi:10.1021/je800505y)
± gives the expanded uncertainty stated by the source.

Settings: Liquid, Ebulliometric method (Recirculating still)

## FCC(F)(F)F [1,1,1,2-tetrafluoroethane]
253.15 K
  vapor or sublimation pressure: 131 ± 10 kPa
263.15 K
  vapor or sublimation pressure: 203 ± 10 kPa
278.15 K
  vapor or sublimation pressure: 353 ± 10 kPa
292.92 K
  vapor or sublimation pressure: 571 ± 10 kPa

## CCF [fluoroethane]
253.15 K
  vapor or sublimation pressure: 214 ± 10 kPa
263.15 K
  vapor or sublimation pressure: 311 ± 10 kPa
278.15 K
  vapor or sublimation pressure: 517 ± 10 kPa
292.92 K
  vapor or sublimation pressure: 802 ± 10 kPa
